# Laboratory results: patent publication US9695155B2, “Herbicidal substituted pyrimidinyloxy benzene compounds” (E. I. DU PONT DE NEMOURS AND COMPANY, priority 2013, dated 2017)
# Columns and labels:
# [1] = test system: surinam grass; experiment: Test C postemergence; assay type: in vivo, Brachiaria decumbens; settings: for Plant response rating, Surinam Grass: Postemergence, scale 0 to 100 (0 no effect, 100 complete control)
# Text: (§1) Seeds of plant species selected from blackgrass (Alopecurus myosuroides), Italian ryegrass (Lolium multiflorum), wheat, winter (winter wheat, Triticum aestivum), galium (catchweed bedstraw, Galium aparine), corn (Zea mays), large (Lg) crabgrass (Digitaria sanguinalis), giant foxtail (Setaria faberii), johnsongrass (Sorghum halepense), lambsquarters (Chenopodium album), morningglory (Ipomoea coccinea), yellow nutsedge (Cyperus esculentus), pigweed (Amaranthus retroflexus), ragweed (common ragweed, Ambrosia elatior), soybean (Glycine max), barnyardgrass (Echinochloa crus-galli), oilseed rape (Brassica napus), waterhemp (common waterhemp, Amaranthus rudis), kochia (Kochia scoparia), wild oat (Avena fatua), surinam grass (Brachiaria decumbens), foxtail, green (green foxtail, Setaria viridis), goosegrass (Eleusine indica), bromegrass, downy (downy bromegrass, Bromus tectorum), nightshade (eastern black nightshade, Solanum ptycanthum), cocklebur (common cocklebur, Xanthium strumarium), cupgrass, woolly (woolly cupgrass, Eriochloa villosa), bermudagrass (Cynodon dactylon), sunflower, (common oilseed sunflower, Helianthus annuus), Russian thistle (Salsola kali), and velvetleaf (Abutilon theophrasti) were planted into a blend of loam soil and sand and treated preemergence with test chemicals formulated in a non-phytotoxic solvent mixture which included a surfactant.
# At the same time, plants selected from these crop and weed species and also barley, winter (winter barley, Hordeum vulgare), windgrass (Apera spica-venti), chickweed (common chickweed, Stellaria media), deadnettle (henbit deadnettle, Lamium amplexicaule), and canarygrass (littleseed canarygrass, Phalaris minor) were planted in pots containing Redi-Earth® planting medium (Scotts Company, 14111 Scottslawn Road, Marysville, Ohio 43041) comprising spaghnum peat moss, vermiculite, wetting agent and starter nutrients and treated with postemergence applications of test chemicals formulated in the same manner. Plants ranged in height from 2 to 18 cm (1- to 4-leaf stage) for postemergence treatments. […]
# [2] = test system: bromegrass, downy; experiment: Test C postemergence; assay type: in vivo, Bromus tectorum; settings: for Plant response rating (0 to 100), Bromegrass, Downy: postemergence; for Plant response rating, Bromegrass, Downy: Postemergence, scale 0 to 100 (0 no effect, 100 complete control)
# Text: as §1
# (§2) At the same time, plants selected from these crop and weed species and also barley, winter (winter barley, Hordeum vulgare), windgrass (Apera spica-venti), chickweed (common chickweed, Stellaria media), deadnettle (henbit deadnettle, Lamium amplexicaule), and canarygrass (littleseed canarygrass, Phalaris minor) were planted in pots containing Redi-Earth® planting medium (Scotts Company, 14111 Scottslawn Road, Marysville, Ohio 43041) comprising spaghnum peat moss, vermiculite, wetting agent and starter nutrients and treated with postemergence applications of test chemicals formulated in the same manner. Plants ranged in height from 2 to 18 cm (1- to 4-leaf stage) for postemergence treatments. Treated plants and controls were maintained in a greenhouse for 13 to 15 days, after which time all species were compared to controls and visually evaluated. Plant response ratings, summarized in Table C, are based on a scale of 0 to 100 where 0 is no effect and 100 is complete control. A dash (-) response means no test result.
# [3] = test system: deadnettle; experiment: Test C postemergence; assay type: in vivo, Lamium amplexicaule; settings: for Plant response rating (0 to 100), Deadnettle: postemergence; for Plant response rating, Deadnettle: Postemergence, scale 0 to 100 (0 no effect, 100 complete control)
# Text: as §1, §2
# [4] = test system: cupgrass, woolly; experiment: Test C postemergence; assay type: in vivo, Eriochloa villosa; settings: for Plant response rating (0 to 100), Cupgrass, Woolly: postemergence; for Plant response rating, Cupgrass, Woolly: Postemergence, scale 0 to 100 (0 no effect, 100 complete control)
# Text: as §1, §2
# [5] = test system: bermudagrass; experiment: Test C postemergence; assay type: in vivo, Cynodon dactylon; settings: for Plant response rating (0 to 100), Bermudagrass: postemergence; for Plant response rating, Bermudagrass: Postemergence, scale 0 to 100 (0 no effect, 100 complete control)
# Text: as §1, §2
# [6] = test system: Russian thistle; experiment: Test D postemergence; assay type: in vivo, Salsola kali
# Text: (§3) Seeds of plant species selected from bluegrass (annual bluegrass, Poa annua), blackgrass (Alopecurus myosuroides), canarygrass (littleseed canarygrass, Phalaris minor), chickweed (common chickweed, Stellaria media), galium (catchweed bedstraw, Galium aparine), bromegrass, downy (downy bromegrass, Bromus tectorum), field poppy (Papaver rhoeas), field violet (Viola arvensis), green foxtail (Setaria viridis), deadnettle (henbit deadnettle, Lamium amplexicaule), Italian ryegrass (Lolium multiflorum), kochia (Kochia scoparia), lambsquarters (Chenopodium album), oilseed rape (Brassica napus), pigweed (Amaranthus retroflexus), chamomile (scentless chamomile, Matricaria inodora), Russian thistle (Salsola kali), speedwell (bird's-eye speedwell, Veronica persica), spring barley (Hordeum vulgare), spring wheat (Triticum aestivum), wild buckwheat (Polygonum convolvulus), wild mustard (Sinapis arvensis), wild oat (Avena fatua), wild radish (Raphanus raphanistrum), windgrass (Apera spica-venti), winter barley (Hordeum vulgare), and winter wheat (Triticum aestivum) were planted into a silt loam soil and treated preemergence with test chemicals formulated in a non-phytotoxic solvent mixture which included a surfactant.
# (§4) At the same time, these species were planted in pots containing Redi-Earth® planting medium (Scotts Company, 14111 Scottslawn Road, Marysville, Ohio 43041) comprising spaghnum peat moss, vermiculite, wetting agent and starter nutrients and treated with postemergence applications of the test chemicals formulated in the same manner. Plants ranged in height from 2 to 18 cm (1- to 4-leaf stage). Treated plants and controls were maintained in a controlled growth environment for 7 to 21 days after which time all species were compared to controls and visually evaluated. Plant response ratings, summarized in Table D, are based on a scale of 0 to 100 where 0 is no effect and 100 is complete control. A dash (-) response means no test result.
# [7] = test system: Russian thistle; experiment: Test D preemergence; assay type: in vivo, Salsola kali; design: key: 0 = no effect, 100 = complete control
# Text: as §3, §4
# [8] = 31 g ai/ha, scale 0 to 100 (0 no effect, 100 complete control)
# [9] = 62 g ai/ha, scale 0 to 100 (0 no effect, 100 complete control)
# [10] = 125 g ai/ha, scale 0 to 100 (0 no effect, 100 complete control)
# [11] = 16 g ai/ha, scale 0 (no effect) to 100 (complete control)
# [12] = 31 g ai/ha, scale 0 (no effect) to 100 (complete control)
structure (smiles),measurement,setting,value
"Clc1cnn(-c2ccccc2Oc2ncc(Br)cn2)c1 [Compound 5, 5-bromo-2-[2-(4-chloro-1H-pyrazol-1-yl)phenoxy]pyrimidine]","Plant response rating (0 to 100), Surinam Grass","[1]; 125 g ai/ha, postemergence",45
same,"Plant response rating, Surinam Grass","[1]; 31 g ai/ha, 13 to 15 days",10
same,"Plant response rating, Surinam Grass",[1]; 62 g ai/ha,35
same,"Plant response rating (0 to 100), Bromegrass, Downy",[2]; 125 g ai/ha,5
same,"Plant response rating (0 to 100), Bromegrass, Downy",[2]; 250 g ai/ha,10
same,"Plant response rating, Bromegrass, Downy","[2]; 31 g ai/ha, 13 to 15 days",5
same,"Plant response rating, Bromegrass, Downy",[2]; 62 g ai/ha,5
same,"Plant response rating (0 to 100), Deadnettle",[3]; 125 g ai/ha,90
same,"Plant response rating (0 to 100), Deadnettle",[3]; 250 g ai/ha,90
same,"Plant response rating, Deadnettle","[3]; 31 g ai/ha, 13 to 15 days",50
same,"Plant response rating, Deadnettle",[3]; 62 g ai/ha,50
same,"Plant response rating (0 to 100), Cupgrass, Woolly",[4]; 125 g ai/ha,10
same,"Plant response rating (0 to 100), Cupgrass, Woolly",[4]; 250 g ai/ha,30
same,"Plant response rating, Cupgrass, Woolly","[4]; 31 g ai/ha, 13 to 15 days",0
same,"Plant response rating, Cupgrass, Woolly",[4]; 62 g ai/ha,10
same,"Plant response rating (0 to 100), Bermudagrass",[5]; 125 g ai/ha,10
same,"Plant response rating (0 to 100), Bermudagrass",[5]; 250 g ai/ha,35
same,"Plant response rating, Bermudagrass","[5]; 31 g ai/ha, 13 to 15 days",0
same,"Plant response rating, Bermudagrass",[5]; 62 g ai/ha,0
"Fc1cccc(Oc2ncc(Cl)cn2)c1-n1cc(C(F)F)nn1 [Compound 141, 5-chloro-2-[2-[4-(difluoromethyl)-1H-1,2,3-triazol-1-yl]-3-fluorophenoxy]pyrimidine]","Plant response rating, Russian Thistle","[6]; 16 g ai/ha, scale 0-100",40
same,"Plant response rating, Russian Thistle",[6]; [8],40
same,"Plant response rating, Russian Thistle",[6]; [9],85
same,"Plant response rating, Russian Thistle",[6]; [10],95
same,"Plant response rating, Russian Thistle",[7]; [11],15
same,"Plant response rating, Russian Thistle",[7]; [12],50
same,"Plant response rating, Russian Thistle","[7]; 62 g ai/ha, scale 0-100",75
same,"Plant response rating, Russian Thistle","[7]; 125 g ai/ha, scale 0-100",100
FCc1cccc(Oc2ncc(Cl)cn2)c1-n1cc(I)cn1 [Compound 245],"Plant response rating, Russian Thistle","[6]; 16 g ai/ha, scale 0-100",55
same,"Plant response rating, Russian Thistle",[6]; [8],75
same,"Plant response rating, Russian Thistle",[6]; [9],70
same,"Plant response rating, Russian Thistle",[6]; [10],80
same,"Plant response rating, Russian Thistle",[7]; [11],5
same,"Plant response rating, Russian Thistle",[7]; [12],10
same,"Plant response rating, Russian Thistle","[7]; 125 g ai/ha, scale 0-100",70
